Results published in paper PMC7986605 (Journal of Neuroscience Research, 2021).

Tested on: primary hippocampal/cortical neuronal and glial cultures
Details: for inhibition of α-synuclein oligomer-induced trafficking deficits (in words): α-synuclein oligomer 1.0 μM, 0.5–20 µM

CC(NC(C)(C)C)C(=O)c1cccc(Cl)c1 (stereo not drawn) [bupropion]
inhibition of α-synuclein oligomer-induced trafficking deficits (in words): weakly inhibited

NC(=O)N1c2ccccc2C=Cc2ccccc21 [carbamazepine]
inhibition of α-synuclein oligomer-induced trafficking deficits (in words): inhibited deficits at low concentrations

CCCCCCNC(=O)n1cc(F)c(=O)[nH]c1=O [carmofur]
inhibition of α-synuclein oligomer-induced trafficking deficits (in words): weakly inhibited

CCCCC1=NC2(CCCC2)C(=O)N1Cc1ccc(-c2ccccc2-c2nnn[nH]2)cc1 [irbesartan]
inhibition of α-synuclein oligomer-induced trafficking deficits (in words): weakly inhibited

CC[C@H](C)C(=O)O[C@H]1C[C@@H](C)C=C2C=C[C@H](C)[C@H](CC[C@@H]3C[C@@H](O)CC(=O)O3)[C@H]21 [lovastatin]
inhibition of α-synuclein oligomer-induced trafficking deficits (in words): inhibited deficits at low concentrations

CSc1ccc2c(c1)N(CCC1CCCCN1C)c1ccccc1S2 (stereo not drawn) [thioridazine]
concentrations at which the compound was toxic/cytotoxic (Sprague-Dawley, rat): above 1 µM
